# According to publication PMC6661955, “Indole bearing thiadiazole analogs: synthesis, β-glucuronidase inhibition and molecular docking study” (BMC Chemistry, 2019):
# Biological target: T1, β-glucuronidase (Bos taurus, UniProt A3KMY8)
# T1 sequence (A3KMY8 24-652): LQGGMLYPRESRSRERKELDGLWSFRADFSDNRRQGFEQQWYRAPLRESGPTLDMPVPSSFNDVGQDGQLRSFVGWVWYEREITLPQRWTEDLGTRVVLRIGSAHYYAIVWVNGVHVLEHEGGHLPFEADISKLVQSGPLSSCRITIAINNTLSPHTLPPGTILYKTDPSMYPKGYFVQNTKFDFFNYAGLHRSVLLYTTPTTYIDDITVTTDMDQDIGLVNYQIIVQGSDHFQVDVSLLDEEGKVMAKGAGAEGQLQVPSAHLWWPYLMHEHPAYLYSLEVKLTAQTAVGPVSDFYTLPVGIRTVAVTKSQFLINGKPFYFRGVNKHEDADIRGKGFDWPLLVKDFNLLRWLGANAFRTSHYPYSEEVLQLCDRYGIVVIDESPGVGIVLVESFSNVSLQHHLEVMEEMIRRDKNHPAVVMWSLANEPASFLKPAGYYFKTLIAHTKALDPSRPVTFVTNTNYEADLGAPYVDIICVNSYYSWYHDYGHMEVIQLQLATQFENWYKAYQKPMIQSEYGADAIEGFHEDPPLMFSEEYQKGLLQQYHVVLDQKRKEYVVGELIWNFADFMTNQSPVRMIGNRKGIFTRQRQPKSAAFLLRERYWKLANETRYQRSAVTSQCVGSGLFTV
# Test: β-glucuronidase inhibition
# Assay type: biochemical
# Conditions: grouping in words
row,SMILES,activity group according to inhibitory IC50 values
1,"Cc1ccc(-c2nnc(-c3ccc4[nH]ccc4c3)s2)cc1 [Compound 1, 2-(1H-indol-5-yl)-5-(p-tolyl)-1,3,4-thiadiazole]",low active
2,"Oc1ccccc1-c1nnc(-c2ccc3[nH]ccc3c2)s1 [Compound 3, 2-(5-(1H-indol-5-yl)-1,3,4-thiadiazol-2-yl)phenol]",highly active
3,"Oc1cccc(-c2nnc(-c3ccc4[nH]ccc4c3)s2)c1O [Compound 6, 3-(5-(1H-indol-5-yl)-1,3,4-thiadiazol-2-yl)benzene-1,2-diol]",highly active
4,"Cc1ccccc1-c1nnc(-c2ccc3[nH]ccc3c2)s1 [Compound 2, 2-(1H-indol-5-yl)-5-(o-tolyl)-1,3,4-thiadiazole]",low active
5,"Fc1ccc(-c2nnc(-c3ccc4[nH]ccc4c3)s2)cc1 [Compound 20, 2-(4-fluorophenyl)-5-(1H-indol-5-yl)-1,3,4-thiadiazole]",moderate active
6,"Oc1ccc(-c2nnc(-c3ccc4[nH]ccc4c3)s2)cc1 [Compound 9, 4-(5-(1H-indol-5-yl)-1,3,4-thiadiazol-2-yl)phenol]",moderate active
7,"Oc1cccc(-c2nnc(-c3ccc4[nH]ccc4c3)s2)c1 [Compound 4, 3-(5-(indol-5-yl)-1,3,4-thiadiazol-2-yl)phenol]",moderate active
8,"Oc1ccc(-c2nnc(-c3ccc4[nH]ccc4c3)s2)cc1O [Compound 7, 4-(5-(1H-indol-5-yl)-1,3,4-thiadiazol-2-yl)benzene-1,2-diol]",highly active
